Measurements reported in paper PMC4944999 (PLoS ONE, 2016).
Where a name gives a salt, the structure may show the parent alone. Where no end group is shown, it is not given here.

How the values were obtained:
[1] = due to its amphiphilic character; cited from earlier work
[2] = tested on: Aichi H3N2; assay type: cell-based, Influenza A/Aichi/2/68 H3N2
[3] = tested on: Aichi H3N2 virus; assay type: binding, Influenza A/Aichi/2/68 H3N2 X31; conditions: for Virus binding on peptide-modified surfaces: pH 7.4
[4] = tested on: Recombinant neuraminidase of Influenza A virus (A/Aichi/2/1968, H3N2); assay type: biochemical
[5] = target: T1, HA from Aichi H3N2 (Influenza A virus, UniProt P03437); assay: biochemical; assay type: binding, Influenza A/Aichi/2/68 H3N2
T1 construct: purchased Sino Biological 11707-V08H

[6] = tested on: Aichi H3N2 binding to fetuin; assay: SPR inhibition of virus binding to immobilized fetuin; parameters: species or system Influenza A/Aichi/2/68 H3N2; conditions: Aichi H3N2 binding to fetuin-immobilized SPR surface, virus preincubated with inhibitor 37°C at least 15 min, four parameter logistic fit, mean ± SEM n≥2
Description: Measurements were performed on a Biacore™ T200 (GE-Healthcare Bio-Sciences AB) using CM5 chips, and running buffer HBSP (10 mM Hepes, 150 mM NaCl, 0.05% Tween 20, pH 7.4) at 25°C. Peptides and proteins were immobilized via amine coupling with EDC/NHS at a flow rate of 10 μl min^-1, according to the manufacturer’s instructions (GE Healthcare). Optimum preconcentration was evaluated before, using acetate and phosphate buffers (10 mM) of pH 4 to 7, and ligand concentrations of 10 μg ml^-1. For the immobilization of biotinylated sialyllactose (Lectinity), neutravidin (Thermo Fisher Scientific) (100 μg ml^-1) was immobilized by amine coupling at pH 5.5 enabling high ligand density. Biotinylated sialyllactose was then injected at a concentration of 10 μg ml^-1 in HBSP for 3 min.
A constant concentration of 50 or 100 μg ml^-1 Aichi H3N2 virus was used as analyte, while the concentration of the inhibitors was varied. The suspensions of virus and inhibitor were mixed and subsequently incubated on a Thriller® thermoshaker at 500 rpm and 37°C for at least 15 min to reach equilibrium before injection on the SPR surface. The inhibitors used were peptides or α-2,3’- and α-2,6’-sialyllactose (Carbosynth). […] Inhibition was calculated against the mean value of at least five binding events with the virus alone, using the sigmoidal four parameter logistic fit (Origin).

[7] = target: hemagglutinin (HA) of low pathogenic influenza A/Mute Swan/Rostock/R901/2006 H7N1 K3141, on virus particles (influenza A virus A/Mute Swan/Rostock/R901/2006 H7N1); assay: SPR
[8] = target: hemagglutinin (HA) of low pathogenic influenza A/Mute Swan/Rostock/R901/2006 H7N1 K3141, on virus particles (influenza A virus A/Mute Swan/Rostock/R901/2006 H7N1)

RRKKAAVALLPAVLLALLAP [EB]
Micelle formation [1]: forms micelles
fold lower Ki(HAI) as compared to PeB^GF [2]: 20 fold

LGVIWAGGNTNY [PeC]
Minimum detection level (lowest virus concentration showing binding 3 times above the SPR response of a buffer control) [3]: 6.25 μg Aichi H3N2 virus protein ml^-1
Virus binding on peptide-modified surfaces [3]: Significant virus binding

CC(=O)N[C@H]1[C@H]([C@H](O)[C@H](O)CO)OC(C(=O)O)=C[C@@H]1O [DANA, N-acetyl-2,3-dehydro-2-deoxy-neuraminic acid disodium salt]
IC50 [4]: 2.2 ± 0.3 µM

ARDFYDYDVFYYAMD-NH2 [PeB]
Kd [5]: 56.8 µM
IC50 [6]: 75 ± 13 µM
IC50 ([6]; listed as PeB^GF): 13 ± 3 µM

SGFLLISNGVHWV-NH2 [PeA]
Virus binding on peptide-modified surfaces [3]: not

ARDFYDYDVFYYAMD-NH2 [PeB (…-amide)]
IC50 [7]: 40 µM
IC50 of microneutralization of Rostock H7N1 on MDCK II cells [8]: 177 µM

ARDFYGYDVFFYAMD-NH2 [PeB^GF (…-amide)]
IC50 [7]: 30 µM
IC50 of microneutralization of Rostock H7N1 on MDCK II cells [8]: 96 µM
